Entries after “also recorded” stand apart in the source; their conditions may differ.
Assays:
BALB/c mice [1] = assay type: in vivo; conditions: for effect on TST immobility compared to vehicle: Day 22 (FIG. 6B), imipramine 15 mg/kg, psilocybin 5 mg/kg Day 1, or both
Protocol: Imipraime (15 mg/kg) was given 1 hour before tail suspension testing on Day 22. […] For positive control, one group was given imipramine which is known to reduce immobility in TST in stressed mice.
Analysis: Simple comparisons between two groups were measured through inferential means.
Psilocybin loading dose was given 3-weeks prior to behavioral testing and imipramine was given 1-hour before testing on each testing day via Intraperitoneal injection (i.p, 5 ml/kg).

BALB/c mice [2] = assay: Elevated plus maze (EPM), anxiety-like behavior
BALB/c mice [3] = assay: Tail suspension test (TST), depression; psilocybin loading dose then psilocybin+CBD+6 MB maintenance

Compound | effect on TST immobility compared to vehicle (BALB/c mice [1]) | percentage of time spent in open space / open arms of the EPM (BALB/c mice [2]; Day 14, two weeks after loading dose of 5 mg/kg psilocybin, vs vehicle control, 5 mg/kg) | anxiety (symptoms) in mouse model (BALB/c mice [2]; loading dose psilocybin 5 mg/kg, alone or followed by low dose psilocybin, CBD and 6 mushroom blend) | immobile posture time in TST (BALB/c mice [3]; Day 15, psilocybin loading dose 5 mg/kg on Day 1) | immobility time in TST (BALB/c mice [3]; Day 22 (three weeks after 5 mg/kg loading dose of psilocybin), all groups receiving a loading dose) | depression (symptoms) in mouse model (BALB/c mice [3]; loading dose psilocybin 5 mg/kg, alone or followed by maintenance psilocybin, CBD and 6 mushroom blend) | effect of psilocybin loading dose on anti-depressive properties of imipramine (BALB/c mice [1]; psilocybin 5 mg/kg Day 1, imipramine 15 mg/kg one hour before TST on Day 22 or Day 29)
CN(C)CCCN1c2ccccc2CCc2ccccc21 [imipramine] | anti-depressant effect | – | – | – | – | – | –
[3-(2-dimethylaminoethyl)-1H-indol-4-yl] dihydrogen phosphate [psilocybin] | anti-depressant effect | significantly increased; also recorded: more time | decreased | decreased | significantly lower; also recorded: significant decrease | decreased | potentiate

Source: patent US20240024340A1, “Compositions and Methods For Treating Migraine” (priority 2020, published 2024)
